# Entries after “also recorded” stand apart in the source; their conditions may differ. Read-outs that look alike come from different tables or passages of the source.
# Legend:
# [1] = tested on: M. tuberculosis; test: Extracellular activity against M. tuberculosis in cholesterol media (Alamar Blue reduction assay); assay type: cell-based, Mycobacterium tuberculosis; conditions: Mycobacterium tuberculosis; read-out: EC50, inhibition of Mtb growth in cholesterol media
# [2] = tested on: Mtb cholesterol degradation; test: Catabolic release of 14CO2 from radiolabelled lipid by Mtb; assay type: cell-based, Mycobacterium tuberculosis
# Description: Because V-59 impairs growth of Mtb in cholesterol media, whether using V-59 to chemically activate Rv1625c inhibits the bacterium's ability to break down cholesterol was tested. When Mtb degrades the A-ring of [4-^14C]-cholesterol, [1-^14C]-pyruvate is released; subsequently, pyruvate dehydrogenase activity mediates the conversion of [1-^14C]-pyruvate into acetyl-CoA and ^14CO2. Therefore, to quantify cholesterol degradation in Mtb, ^14CO2 released following [4-^14C]-cholesterol breakdown by the bacteria was captured.
# [3] = target: T1, Rv1625c (Mycobacterium tuberculosis, UniProt P9WQ35); assay type: cell-based
# T1 construct: endogenous in cells; host or cells: whole Mycobacterium tuberculosis (WT; CompFull = ΔRv1625c complemented with the entire rv1625c gene)
# T1 sequence (P9WQ35 1-443): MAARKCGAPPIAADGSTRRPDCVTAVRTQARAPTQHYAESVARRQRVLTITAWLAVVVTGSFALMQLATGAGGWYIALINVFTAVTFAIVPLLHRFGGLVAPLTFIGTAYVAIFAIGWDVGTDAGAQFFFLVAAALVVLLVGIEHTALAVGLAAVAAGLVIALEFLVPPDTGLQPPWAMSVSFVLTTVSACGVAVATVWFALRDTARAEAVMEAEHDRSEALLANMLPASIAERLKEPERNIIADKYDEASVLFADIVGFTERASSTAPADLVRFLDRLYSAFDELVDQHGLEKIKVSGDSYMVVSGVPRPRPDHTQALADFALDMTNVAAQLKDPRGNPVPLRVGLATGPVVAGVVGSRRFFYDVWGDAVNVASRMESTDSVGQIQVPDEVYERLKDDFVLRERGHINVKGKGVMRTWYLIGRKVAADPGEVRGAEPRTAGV
# [4] = tested on: Mtb; assay type: in vivo, BALB/c mice; conditions: for Reduction in lung CFUs: mouse, in vivo
# [5] = tested on: mammalian AC enzymes; conditions: human cell lines, 10 μM
# [6] = tested on: Mtb in macrophages; test: Inhibition of Mtb replication in macrophages (intramacrophage EC50); assay type: cell-based, Mycobacterium tuberculosis; conditions: Mycobacterium tuberculosis, Macrophage; read-out: EC50, inhibition of Mtb replication in macrophages
# [7] = Plasma exposure over the cholesterol-media EC50 after oral dosing in mice; assay type: in vivo
# [8] = tested on: Mtb; test: Mtb growth inhibition in standard rich growth media (7H9 OADC) or acetate media; assay type: cell-based, Mycobacterium tuberculosis; conditions: media containing acetate
# [9] = tested on: Mtb; test: Chronic Mtb infection in C3HeB/FeJ mice; assay type: in vivo; conditions: infected and treated in the same manner
# [10] = tested on: prpD'::GFP reporter; assay type: cell-based, Mycobacterium tuberculosis; conditions: V-59 10 μM
# [11] = target: hERG (Homo sapiens, UniProt Q12809); test: in vitro; assay type: biochemical; conditions: Table S2
# [12] = Solubility at pH 6.8; conditions: pH 6.8, aqueous buffer
# [13] = Extraction ratio, human; conditions: Table S2
# [14] = Caseum binding
# [15] = Extraction ratio, mouse; conditions: Table S2
# [16] = Mouse plasma protein binding
# [17] = tested on: Mtb H37Rv; test: MIC determination in Mtb H37Rv (MABA, 7H12-Cholesterol media); assay type: cell-based; conditions: Mycobacterium tuberculosis, two batches
# Description: MIC Determination in Mtb H37Rv
# The minimum inhibitory concentration (MIC) of the test compounds were determined using ten-point, two-fold serial dilutions in 7H12-Cholesterol media using Microdilution Alamar Blue Assay (MABA) as previously described (Cho et al., 2015; VanderVen et al., 2015). Briefly, Mycobacterial cells at the mid-logarithmic phase of growth were diluted (1:1,000). Twenty μl of this dilution was added to each well containing 2-fold serially diluted test compounds and incubated for 7 days at 37° C. Alamar Blue (Invitrogen) reagent (4 μL per well) was added along with 20% Tween 80 (2.5 μL per well, Sigma Aldrich) to evaluate bacterial cell viability. Plates were read 24 h after adding Alamar Blue at absorbance 570 nm with a reference wavelength of 600 nm.
# [18] = tested on: Mtb H37Rv (Mtb-lux) inside PMA-differentiated THP-1 cells; test: Intramacrophage activity in THP-1 cells; assay type: cell-based, Mycobacterium tuberculosis
# [19] = tested on: Mtb inside J774.1 macrophages; test: Intramacrophage activity in J774.1 cells; assay type: cell-based, Mycobacterium tuberculosis
# [20] = tested on: Mtb H37Ra; conditions: read-out: IC50 against Mtb H37Ra in cholesterol media
# [21] = tested on: Mtb; test: Checkerboard combination assay with known anti-TB drugs (FIC index); assay type: cell-based, Mycobacterium tuberculosis; conditions: nine anti-TB drugs
# From the text: Combination Testing of mCLB073 with Known Anti-TB Drugs
# To test for interactions between mCLB073 and known anti-tubercular drugs in combination in an in vitro growth assay, a checkerboard assay to test for interactions between mCLB073 and drugs with known anti-TB activity using Alamar Blue as a viability marker (Lechartier et al., 2012) was used. Drug combinations were categorized based on fractional inhibitory concentration (FIC) index of FIC≤0.5 as synergistic, 0.5<FIC≤1 as additive, 1<FIC≤4 as no interaction and FIC ≥4 as antagonism (Hall et al., 1983).
# Performed were synergy studies between mCLB073 and nine anti-TB drugs: Moxifloxacin (MOXI), Isoniazid (INH), Rifampicin (RIF), Streptomycin (STR), Levofloxacin (LEV), Linezolid (LIN), Ethionamide (ETH), Pretomanid (PA-824), and Bedaquiline (BDQ). A checkerboard titration in a microtiter plate was used as previously described (Hsieh et al., 1993).
# [22] = tested on: non-replicating M. tuberculosis; test: Hu Coats 100-day old culture model; conditions: for Cidal activity compared to the NixTB combination: with Pretomanid and Bedaquiline
# hERG, sequence (Q12809 whole entry): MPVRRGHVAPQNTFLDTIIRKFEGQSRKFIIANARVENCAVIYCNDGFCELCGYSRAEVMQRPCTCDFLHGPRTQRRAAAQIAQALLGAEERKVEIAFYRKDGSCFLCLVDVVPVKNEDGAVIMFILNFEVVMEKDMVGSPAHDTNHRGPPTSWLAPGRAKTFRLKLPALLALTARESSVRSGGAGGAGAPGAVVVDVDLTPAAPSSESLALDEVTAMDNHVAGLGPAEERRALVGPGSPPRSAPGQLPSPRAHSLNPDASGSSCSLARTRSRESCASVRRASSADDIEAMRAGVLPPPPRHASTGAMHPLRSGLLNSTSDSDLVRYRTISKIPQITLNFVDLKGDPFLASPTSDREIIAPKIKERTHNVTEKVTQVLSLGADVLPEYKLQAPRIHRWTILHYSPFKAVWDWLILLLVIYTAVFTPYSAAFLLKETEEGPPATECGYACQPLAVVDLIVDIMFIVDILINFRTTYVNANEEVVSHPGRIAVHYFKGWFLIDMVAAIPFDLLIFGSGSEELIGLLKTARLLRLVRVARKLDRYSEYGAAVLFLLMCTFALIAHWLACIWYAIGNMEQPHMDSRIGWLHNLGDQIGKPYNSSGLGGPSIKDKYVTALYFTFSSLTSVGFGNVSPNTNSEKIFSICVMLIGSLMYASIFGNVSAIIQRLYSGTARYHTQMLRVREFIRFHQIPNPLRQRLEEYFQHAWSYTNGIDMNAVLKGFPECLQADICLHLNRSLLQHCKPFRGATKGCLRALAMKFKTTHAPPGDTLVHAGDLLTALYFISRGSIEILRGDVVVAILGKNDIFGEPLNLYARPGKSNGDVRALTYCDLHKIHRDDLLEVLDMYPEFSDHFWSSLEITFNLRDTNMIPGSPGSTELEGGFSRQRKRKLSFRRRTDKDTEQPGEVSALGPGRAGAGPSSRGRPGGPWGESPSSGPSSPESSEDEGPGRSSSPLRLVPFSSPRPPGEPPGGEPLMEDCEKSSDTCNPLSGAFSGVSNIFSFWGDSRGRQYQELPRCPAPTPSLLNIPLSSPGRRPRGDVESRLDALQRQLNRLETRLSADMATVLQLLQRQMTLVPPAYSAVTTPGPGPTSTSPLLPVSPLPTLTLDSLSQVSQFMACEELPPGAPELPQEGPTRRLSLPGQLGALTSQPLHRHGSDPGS
smiles,measurement,setting,value
"Cc1nonc1CC(=O)N1CCC(n2nnc(-c3ccc(F)cc3)n2)CC1 [Compound V-59, 1-(4-(5-(4-fluorophenyl)-2H-tetrazol-2-yl)piperidin-1-yl)-2-(4-methyl-1,2,5-oxadiazol-3-yl)ethan-1-one]",EC50,[1],700 nM
same,Decrease of 14CO2 release from [4-14C]-cholesterol,[2]; WT Mtb,~89%
same,Effect on 14CO2 release from [U-14C]-palmitate,[2]; fatty acid breakdown,no measurable effect
same,cAMP induction in WT Mtb,[3],~70 fold
same,cAMP induction in CompFull Mtb,[3]; CompFull strain,~140 fold
same,Reduction of extent of lung inflammation,"[4]; BALB/c, 50 mg/kg oral once-daily, weeks 4-8",~50%
same,Reduction in lung CFUs,"[4]; po, 50 mg/kg",~0.4 log10
same,Activation of ACs in mammalian cells,[5],No evidence
same,EC50,[6],300 nM
same,Plasma exposure above the EC50 (cholesterol media),[7]; oral dosing in mice at 20 mg/kg,approximately 24 hours
same,Inhibition of Mtb growth in acetate media or standard rich growth media,[8],not
same,Reduction in lung CFUs,[9],~0.5 log10
same,Decrease of prpD'::GFP signal in CompFull,[10]; CompFull strain,~90%
same,Decrease of prpD'::GFP signal in WT,[10]; WT,~50%
Cn1ncnc1CC(=O)N1[C@@H]2CC(c3nc(-c4ccc(Cl)c(Cl)c4)no3)C[C@H]1C2 (stereo partly shown) [drawing 4],IC50,[11],11800 nM
same,solubility,[12],94 µM
same,ER mouse/human: human,[13],<0.3/<0.3
same,fraction unbound,[14],< 0.0001
same,ER mouse/human: mouse,[15],<0.3/<0.3
same,fraction unbound,[16],0.022
"Cn1ncnc1CC(=O)N1CCC(c2nc(-c3ccc(Cl)c(Cl)c3)no2)CC1 [mCLB073, 1-(4-(3-(3,4-dichlorophenyl)-1,2,4-oxadiazol-5-yl)-1-piperidinyl)-2-(2-methyl-2H-1,2,4-triazol-3-yl)-1-ethanone]",MIC90,[17],0.28 µM
same,"Sinf (maximum inhibition), THP-1",[18],76.8%
same,EC50,"[18]; Mycobacterium tuberculosis, H37RV, THP-1, 72 h, luminescence, day 3, read-out: EC50, growth of Mtb inside PMA-differentiated THP-1 cells",40 nM
same,Decrease of extent of lung pathology,"[4]; BALB/c, 30 mg/kg oral once-daily, weeks 4-8",~45%
same,Lung bacterial burden when added to sub-optimal rifampicin,"[4]; BALB/c, 30 mg/kg plus sub-optimal dose of rifampicin",did not increase the bacterial burden
same,Reduction in lung CFUs,[4]; 5 mg/kg,~0.4 log10
same,Reduction in lung CFUs,"[4]; po, 30 mg/kg",~0.4 log10
same,Plasma exposure over the EC50 identified in cholesterol media,[7]; dosed orally in mice,at least 24 hours
same,"Sinf (maximum inhibition), J774.1",[19],42.1%
same,EC50,"[19]; Mycobacterium tuberculosis, J774.1, 72 h, luminescence, day 3, read-out: EC50, growth of Mtb inside J774.1 macrophages",50 nM
same,IC50,[20],30.1 nM
same,Antagonism with known anti-TB drugs,[21],did not display any antagonism
same,Efficacy when tested individually,"[22]; 100-day-old culture, alone",no efficacy
same,Activity in combination versus NixTB combination,"[22]; Pretomanid 20.87 μM, Bedaquiline 2.25 μM, test drug 20, 8, 1 μM",comparable
same,CFU reduction versus PB,"[22]; added to PB, 50 μM",superior CFU reduction
same,Cidal activity compared to the NixTB combination,[22]; 50 μM,complete sterilization; also recorded: two log units better
same,Cidal activity compared to the NixTB combination,[22]; all compounds at 20 μM,one-log improvement
